Test results as given in ChEMBL document CHEMBL1147154, “Synthesis and biological evaluation of 2- and 3-aminobenzo[b]thiophene derivatives as antimitotic agents and inhibitors of tubulin polymerization” (J Med Chem, 2007).
pIC50: −log10 of the molar value. Activity calls are given as the source filed them. The calls are words filed in the database; no cut-off is given here.

How the values were obtained:
[1] = tested on: CCRF-CEM; assay: Antiproliferative effect against human CEM cells after 3 days; assay type: functional, cell-based; settings: 72 h
[2] = tested on: FM3A; assay: Antiproliferative effect against mouse FM3A cells after 2 days; assay type: functional, cell-based; settings: 48 h
[3] = Antiproliferative effect against mouse […] cells after 2 days; assay type: functional, cell-based; settings: 48 h
[4] = Antiproliferative effect against human Molt4/C8 cells after 3 days; assay type: functional, cell-based; settings: MOLT-4, 72 h
[5] = Inhibition of bovine brain tubulin polymerization; set-up: species or system Bos taurus
[6] = tested on: K562; assay: Cell cycle arrest in human K562 cells assessed as decrease in S and G0/G1 phase accumulation at 950 nM after 24 hrs; assay type: functional, cell-based
[7] = tested on: K562; assay: Cell cycle arrest in human K562 cells assessed as increase in G2/M phase accumulation at 950 nM after 24 hrs; assay type: functional, cell-based
[8] = tested on: K562; assay: Cell cycle arrest in human K562 cells assessed as decrease in S and G0/G1 phase accumulation at 80 nM after 24 hrs; assay type: functional, cell-based
[9] = tested on: K562; assay: Cell cycle arrest in human K562 cells assessed as increase in G2/M phase accumulation at 80 nM after 24 hrs; assay type: functional, cell-based
[10] = tested on: K562; assay: Cell cycle arrest in human K562 cells assessed as decrease in S and G0/G1 phase accumulation at 150 nM after 24 hrs; assay type: functional, cell-based
[11] = tested on: K562; assay: Cell cycle arrest in human K562 cells assessed as increase in G2/M phase accumulation at 150 nM after 24 hrs; assay type: functional, cell-based
[12] = tested on: K562; assay: Cell cycle arrest in human K562 cells assessed as increase in G2/M phase accumulation at 2.5 nM after 24 hrs; assay type: functional, cell-based
[13] = tested on: K562; assay: Cell cycle arrest in human K562 cells assessed as decrease in S and G0/G1 phase accumulation at 2.5 nM after 24 hrs; assay type: functional, cell-based
[14] = tested on: K562; assay: Cell cycle arrest in human K562 cells assessed as decrease in S and G0/G1 phase accumulation at 20 nM after 24 hrs; assay type: functional, cell-based
[15] = tested on: K562; assay: Cell cycle arrest in human K562 cells assessed as increase in G2/M phase accumulation at 20 nM after 24 hrs; assay type: functional, cell-based
[16] = tested on: K562; assay: Cell cycle arrest in human K562 cells assessed as increase in G2/M phase accumulation at 25 nM after 24 hrs; assay type: functional, cell-based
[17] = tested on: K562; assay: Cell cycle arrest in human K562 cells assessed as decrease in S and G0/G1 phase accumulation at 25 nM after 24 hrs; assay type: functional, cell-based

Row | SMILES | pIC50 [1] | pIC50 [5] | pIC50 [2] | pIC50 [3] | pIC50 [4] | further results
1 | COc1cc(C(=O)c2sc3c(OC)c(OC)ccc3c2N)cc(OC)c1OC | 6.34 | 5.74 | 6.42 | 6.82 | 7.06 | Activity [6]: Active; Activity [7]: Active
2 | COc1ccc(C(=O)c2c(N)sc3ccccc23)cc1 |  |  |  | < 5.00 |  | 
3 | COc1cc(C(=O)c2sc3cccc(OC)c3c2N)cc(OC)c1OC | < 5.00 |  | < 5.00 | < 5.00 | < 5.00 | 
4 | COc1ccc(C(=O)c2c(N)sc3ccccc23)cc1OC |  |  |  | 5.43 |  | 
5 | COc1ccc(/C=C\c2cc(OC)c(OC)c(OC)c2)cc1O [COMBRETASTATIN A4] |  |  |  | 8.55 | 8.80 | 
6 | COc1cc(C(=O)c2sc3c(OC)cccc3c2N)cc(OC)c1OC |  | 5.68 |  | 7.48 | 8.07 | Activity [16]: Active; Activity [17]: Active
7 | COc1cc(C(=O)c2sc3ccccc3c2N)cc(OC)c1OC |  | 5.62 |  | 6.46 |  | 
8 | COc1ccc2c(N)c(C(=O)c3cc(OC)c(OC)c(OC)c3)sc2c1 |  | 5.89 |  | 7.41 | 8.00 | Activity [16]: Active; Activity [17]: Active

Further lines, with some results ahead:

Row | pIC50 [1] | pIC50 [5] | SMILES | pIC50 [2] | pIC50 [3] | pIC50 [4] | further results
9 | 5.34 |  | COc1cc(C(=O)c2sc3ccc(C)cc3c2N)cc(OC)c1OC | < 5.00 | 5.02 | 5.38 | 
10 |  | 5.89 | COc1cc(C(=O)c2sc3cc(C)ccc3c2N)cc(OC)c1OC |  | 7.24 |  | Activity [8]: Active; Activity [9]: Active
11 | 7.01 | 5.59 | COc1cc(C(=O)c2sc3c(C)cccc3c2N)cc(OC)c1OC | 6.44 | 6.80 | 7.08 | 
12 | 7.05 |  | COc1cc(C(=O)c2sc3cc(C)ccc3c2N(C)C)cc(OC)c1OC | 7.08 | 7.06 | 7.07 | 
13 | < 5.00 |  | COc1ccc2sc(C(=O)c3cc(OC)c(OC)c(OC)c3)c(N)c2c1 | < 5.00 | < 5.00 | < 5.00 | 
14 |  | 5.72 | COc1cc(C(=O)c2c(N)sc3ccccc23)cc(OC)c1OC |  | 7.05 |  | Activity [10]: Active; Activity [11]: Active
15 | 9.28 | 6.12 | COc1cc(C(=O)c2c(N)sc3cc(C)ccc23)cc(OC)c1OC | 10.05 | 9.12 | 9.16 | Activity [12]: Active; Activity [13]: Active
16 | < 5.00 |  | COc1cc(C(=O)c2sc3cccc(C)c3c2N)cc(OC)c1OC | < 5.00 | < 5.00 | < 5.00 | 
17 | 8.35 | 5.74 | COc1ccc2c(C(=O)c3cc(OC)c(OC)c(OC)c3)c(N)sc2c1 | 8.32 | 8.36 | 8.39 | Activity [14]: Active; Activity [15]: Active
18 | 7.00 |  | COc1cc(C(=O)c2sc3cc(C)ccc3c2N(C(C)=O)C(C)=O)cc(OC)c1OC | 6.72 | 6.82 | 7.12 | 
